Reference: patent US4098706A, “Lubricating agents for thermoplastic materials and process for preparing the same” (Sapchim-Fournier-Cimag, priority 1975, dated 1978)
Where two headings read alike, the source gives them in different places.

What was measured:
[1] = Extractibility of the lubricating agents from bottles by solvents simulating food and drink, 49° C; assay type: physicochemical
Procedure: The lubricating agents according to the invention may be used to lubricate polymers which are intended for the manufacture of packaging and containers for food and drink and its was therefore necessary, in spite of their low toxicity, to determine their extractibility by various solvents simulating food and drink, namely water, ethanol-water 50/50, an aqueous solution of acetic acid (3%) and heptane.
This study was carried out in accordance with the requirements of the Food and Drug Administration (U.S.A.).
The extractions were performed in semi-rigid bottles, prepared with the resins given hereabove.
The ratio of the volume of solvent to the surface of plastic material exposed to extraction was about […], taking into account the geometric characteristics of the bottles.
Heating--: A thermostated oven for the non-inflammable solvents (water and acetic acid) A thermostated water-bath for the inflammable solvents (alcohol and heptane)
This was, in each case, intentionally longer than that which would have given stable maximum values.
The following periods of duration were in fact, observed:
Acetic acid (3%) : 15 days
Aqueous ethanol: 3 to 4 days
The quantity of lubricating agent extracted was determined by thin layer chromatography, by comparison with a standard scale.
A blank trial was carried out with control bottles containing no lubricating agent and a purely negative result was obtained.
The amounts of lubricating agent determined are expressed in μg/ml of extraction solvent or, which is the same, per cm^2 of surface submitted to extraction.

[2] = test system: mice
[3] = Tendency for bubbles to appear in the polyvinyl chlorides containing the lubricating agents; assay type: physicochemical
Description: It is known that a release of gaz during preparation of the resin and particularly at the moment of extrusion or blowing is a grave disadvantage when manufacturing objects such as bottles because it may lead to the formation of visible bubbles in the plastic.

[4] = Formula 914, acetic acid (3%), 15 days
[5] = Formula 914, aqueous ethanol, 3 to 4 days
[6] = Formula 915, acetic acid (3%), 15 days
[7] = Formula 915, aqueous ethanol, 3 to 4 days
[8] = Formula 913, acetic acid (3%), 15 days
[9] = Formula 913, aqueous ethanol, 3 to 4 days

With CCCCCCCCCCCCCCCCCCCCCC(=O)OCCCCOC(=O)CCCCCCCCCCCCCCCCCCCCC [Compound 7, 1,4-butanediol dibehenate] the “Amount of lubricating agent extracted” value [1, 4] was 0.13 µg/mL, the “Amount of lubricating agent extracted” value [1, 5] was 0.13 µg/mL and the “Amount of lubricating agent extracted” value ([1]; Formula 914, heptane, 3 days) was 0.8 µg/mL. The “Amount of lubricating agent extracted” value ([1]; Formula 914, water, 15 days) was 0.13 µg/mL and the Toxic symptoms ([2]; mouse, in vivo, po) was “none”.

In the case of CCCCCCCCCCCCCCCCCCCCCC(=O)OCCOCCOCCOC(=O)CCCCCCCCCCCCCCCCCCCCC [Compound 4, Triethyleneglycol dibehenate], the Toxic symptoms ([2]; mouse, in vivo, po) was “none”.

With CCCCCCCCCCCCCCCCCCCCCC(=O)OCC(C)OC(=O)CCCCCCCCCCCCCCCCCCCCC (stereo not shown) [Compound 1, 1,2-propanediol dibehenate] the “Amount of lubricating agent extracted” value [1, 6] was 0.13 µg/mL, the “Amount of lubricating agent extracted” value [1, 7] was 0.13 µg/mL and the “Amount of lubricating agent extracted” value ([1]; Formula 915, heptane, 3 days) was 0.26 µg/mL. For the same compound, the “Amount of lubricating agent extracted” value ([1]; Formula 915, water, 15 days) was 0.13 µg/mL, the “Observations (release of gas)” value [3] was “No release” and the “Temperature at which bubbles appear” value [3] was 250 °C. For the same compound, the Toxic symptoms ([2]; mouse, in vivo, po) was “none”.

For CCCCCCCCCCCCCCCCCCCCCC(=O)OCC(COC(=O)CCCCCCCCCCCCCCCCCCCCC)(COC(=O)CCCCCCCCCCCCCCCCCCCCC)COC(=O)CCCCCCCCCCCCCCCCCCCCC [Compound 9, Pentaerythrite tetrabehenate], the “Amount of lubricating agent extracted” value [1, 8] was 0.26 µg/mL, the “Amount of lubricating agent extracted” value [1, 9] was 0.13 µg/mL and the “Amount of lubricating agent extracted” value ([1]; Formula 913, heptane, 3 days) was 0.26 µg/mL. The “Amount of lubricating agent extracted” value ([1]; Formula 913, water, 15 days) was 0.13 µg/mL, the “Observations (release of gas)” value [3] was “Slight release” and the “Temperature at which bubbles appear” value [3] was 195 °C. The Toxic symptoms ([2]; mouse, in vivo, po) was “none”.

For CCCCCCCCCCCCCCCCCCCCCC(=O)O [calcium behenate], the Toxic symptoms ([2]; mouse, in vivo, po) was “none”.

For CCCCCCCCCCCCCCCCCCCCCC(=O)OCCSCCOC(=O)CCCCCCCCCCCCCCCCCCCCC [Compound 2, Thiodiglycol dibehenate], the “Amount of lubricating agent extracted” value [1, 8] was 0.4 µg/mL, the “Amount of lubricating agent extracted” value [1, 9] was 0.6 µg/mL and the “Amount of lubricating agent extracted” value ([1]; Formula 913, heptane, 3 days) was 1.3 µg/mL. For the same compound, the “Amount of lubricating agent extracted” value ([1]; Formula 913, water, 15 days) was 0.13 µg/mL, the “Amount of lubricating agent extracted” value [1, 4] was 0.13 µg/mL and the “Amount of lubricating agent extracted” value [1, 5] was 0.13 µg/mL. The “Amount of lubricating agent extracted” value ([1]; Formula 914, heptane, 3 days) was 0.8 µg/mL, the “Amount of lubricating agent extracted” value ([1]; Formula 914, water, 15 days) was 0.13 µg/mL and the “Amount of lubricating agent extracted” value [1, 6] was 0.13 µg/mL. The “Amount of lubricating agent extracted” value [1, 7] was 0.13 µg/mL, the “Amount of lubricating agent extracted” value ([1]; Formula 915, heptane, 3 days) was 0.6 µg/mL and the “Amount of lubricating agent extracted” value ([1]; Formula 915, water, 15 days) was 0.13 µg/mL. For the same compound, the Toxic symptoms ([2]; oral, mice) was “none”.

With CCCCCCCCCCCCCCCCCCCCCC(=O)OCC(COC(=O)CCCCCCCCCCCCCCCCCCCCC)OC(=O)CCCCCCCCCCCCCCCCCCCCC [Compound 8, Glyceryl tribehenate] the “Observations (release of gas)” value [3] was “Slight release”, the “Temperature at which bubbles appear” value [3] was 230 °C and the Toxic symptoms ([2]; mouse, in vivo, po) was “none”.
